This test has as its target T1, interaction of ICAM-1 with the Leukointegrin CD18/CD11a (LFA-1) (Homo sapiens, UniProt P05107+P20701).
T1 construct: endogenous in cells; sICAM-1: made in house, secreted from transfected CHO DUX cells
As to the kind of experiment: Assay to determine inhibition of LFA-1 binding to ICAM-1 (immunopurified LFA-1 on plate-bound sICAM-1, ELISA readout).

The mark [1] stands for this setting: values marked e approximated from incomplete dose-response curve.

Like-named read-outs stand apart in the source and are kept apart here.

T1 sequence (P20701 26-1170): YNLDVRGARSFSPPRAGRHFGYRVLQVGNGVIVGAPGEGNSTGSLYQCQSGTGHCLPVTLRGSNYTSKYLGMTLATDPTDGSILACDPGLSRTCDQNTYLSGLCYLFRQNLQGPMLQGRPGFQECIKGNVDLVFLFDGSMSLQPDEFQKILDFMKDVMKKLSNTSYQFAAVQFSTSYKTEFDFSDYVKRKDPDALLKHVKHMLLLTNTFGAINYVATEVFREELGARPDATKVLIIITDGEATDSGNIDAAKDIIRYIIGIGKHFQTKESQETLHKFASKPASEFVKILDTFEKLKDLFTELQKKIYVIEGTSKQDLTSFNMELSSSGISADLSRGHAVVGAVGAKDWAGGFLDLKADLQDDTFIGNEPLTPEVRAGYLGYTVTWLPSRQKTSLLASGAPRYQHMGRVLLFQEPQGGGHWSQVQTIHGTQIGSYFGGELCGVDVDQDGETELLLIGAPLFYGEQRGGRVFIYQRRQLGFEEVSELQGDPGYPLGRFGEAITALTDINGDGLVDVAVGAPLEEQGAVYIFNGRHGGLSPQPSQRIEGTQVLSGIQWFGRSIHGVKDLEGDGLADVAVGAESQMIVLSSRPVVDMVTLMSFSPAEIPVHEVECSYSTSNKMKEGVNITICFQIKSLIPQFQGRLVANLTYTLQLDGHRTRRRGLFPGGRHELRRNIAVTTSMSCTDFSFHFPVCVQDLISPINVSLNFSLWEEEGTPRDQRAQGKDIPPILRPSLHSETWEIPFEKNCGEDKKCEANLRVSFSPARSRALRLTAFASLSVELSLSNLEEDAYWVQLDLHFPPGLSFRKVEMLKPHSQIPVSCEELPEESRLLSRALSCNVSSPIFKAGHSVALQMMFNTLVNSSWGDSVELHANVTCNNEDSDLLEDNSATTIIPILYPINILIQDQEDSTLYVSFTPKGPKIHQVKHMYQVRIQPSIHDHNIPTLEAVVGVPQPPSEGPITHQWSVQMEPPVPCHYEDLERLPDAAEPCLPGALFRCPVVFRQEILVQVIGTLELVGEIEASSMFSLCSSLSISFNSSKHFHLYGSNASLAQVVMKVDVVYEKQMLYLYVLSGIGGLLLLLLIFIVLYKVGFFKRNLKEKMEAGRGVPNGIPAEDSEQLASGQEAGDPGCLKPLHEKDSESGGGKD
T1 sequence (P05107 23-769): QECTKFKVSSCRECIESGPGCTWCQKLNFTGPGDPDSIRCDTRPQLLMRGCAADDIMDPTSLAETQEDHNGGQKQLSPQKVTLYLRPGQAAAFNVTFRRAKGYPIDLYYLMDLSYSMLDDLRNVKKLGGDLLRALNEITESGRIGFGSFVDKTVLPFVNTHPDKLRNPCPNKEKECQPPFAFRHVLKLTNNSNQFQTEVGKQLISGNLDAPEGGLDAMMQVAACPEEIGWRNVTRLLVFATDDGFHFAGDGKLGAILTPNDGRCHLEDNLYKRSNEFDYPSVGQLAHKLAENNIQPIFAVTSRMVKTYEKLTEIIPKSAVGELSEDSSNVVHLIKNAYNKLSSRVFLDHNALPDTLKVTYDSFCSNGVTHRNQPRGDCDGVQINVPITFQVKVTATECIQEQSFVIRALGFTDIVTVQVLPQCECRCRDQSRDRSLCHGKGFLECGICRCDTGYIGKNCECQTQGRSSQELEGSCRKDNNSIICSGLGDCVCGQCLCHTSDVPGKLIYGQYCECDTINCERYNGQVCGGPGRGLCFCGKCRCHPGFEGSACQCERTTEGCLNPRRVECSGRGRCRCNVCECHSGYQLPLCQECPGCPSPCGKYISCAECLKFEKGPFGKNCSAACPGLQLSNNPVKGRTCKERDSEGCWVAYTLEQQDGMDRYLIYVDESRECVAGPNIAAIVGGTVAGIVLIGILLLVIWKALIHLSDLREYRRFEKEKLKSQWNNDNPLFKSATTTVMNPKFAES

Regarding `CC1(Cc2ccc(-c3ccc(Cl)cc3Cl)cc2)NC(=O)N(c2cc(Cl)cc(Cl)c2)C1=O` (centres unmarked) [Example 201], binding under setting [1] was characterised by a dissociation constant (Kd) of 680 nM. In other words, the sub-micromolar range.

For the molecule `COc1cccc(-c2ccc(CC3(C)NC(=O)N(c4cc(Cl)cc(Cl)c4)C3=O)cc2)c1` (centres unmarked) [Example 214], the Kd (usually a measure of binding affinity in units of concentration) was 90 nM. Take `CC1(Cc2ccc(-c3ccccc3F)cc2)NC(=O)N(c2cc(Cl)cc(Cl)c2)C1=O` (centres unmarked) [Example 200]: the Kd under setting [1] was determined as 90 nM. Still for that read-out and setting: then `O=C1C(Cc2ccccc2)N(Cc2ccccc2)C(=O)N1c1cc(Cl)cc(Cl)c1` (centres unmarked) [Example 84], with 420 nM; and `Cc1cc(C)cc(CC2(C)C(=O)N(c3cc(Cl)cc(Cl)c3)C(=O)N2C)c1` (centres unmarked) [Example 162], with 1050 nM; and `Cc1cccc(C)c1CC1(C)NC(=O)N(c2cc(Cl)cc(Cl)c2)C1=O` (centres unmarked) [Example 38], with 1150 nM. `Cc1cc(C)cc(-c2ccc(CC3(C)NC(=O)N(c4cc(Cl)cc(Cl)c4)C3=O)cc2)c1` (centres unmarked) [Example 210] displayed a Kd of 540 nM.

Under setting [1], `O=C1NC(C(O)c2ccccc2)C(=O)N1c1cc(Cl)cc(Cl)c1` (centres unmarked) [Example 179] registered a Kd of 3840 nM. Same read-out and setting: the figure for `CN(C)CCN1C(=O)N(c2cc(Cl)cc(Cl)c2)C(=O)C1(C)Cc1ccc(Br)cc1` (centres unmarked) [Example 99] is 520 nM.

Regarding `CC1(Cc2ccc(-c3ccccc3C(F)(F)F)cc2)NC(=O)N(c2cc(Cl)cc(Cl)c2)C1=O` (centres unmarked) [Example 213], the Kd was about 2000 nM. The molecule `Cc1ccccc1-c1ccc(CC2(C)NC(=O)N(c3cc(Cl)cc(Cl)c3)C2=O)cc1` (centres unmarked) [Example 197] displayed a Kd under setting [1] of 190 nM. `C[C@@]1(Cc2ccc(Br)cc2)C(=O)N(c2cc(Cl)cc(Cl)c2)C(=O)N1CCCCCP(=O)(O)O` [Example 221] yielded a Kd of 140 nM. In turn, `CCOc1ccccc1-c1ccc(CC2(C)NC(=O)N(c3cc(Cl)cc(Cl)c3)C2=O)cc1` (centres unmarked) [Example 193] came in with a Kd under setting [1] of 290 nM. This lies in the sub-micromolar range. `CN1C(=S)N(c2cc(Cl)cc(Cl)c2)C(=S)C1(C)Cc1ccc(Br)cc1` (centres unmarked) [Example 79] came in with a Kd under setting [1] of 430 nM. Same read-out and setting: the figure for `O=C1NC(Cc2ccccc2)C(=O)N1c1cc(Cl)c(I)c(Cl)c1` (centres unmarked) [Example 71] is 4380 nM.

On to `COCC1(Cc2ccc(Br)cc2)C(=O)N(c2cc(Cl)cc(Cl)c2)C(=O)N1C` (centres unmarked) [Example 175], for which the Kd under setting [1] was determined as 230 nM. Turning to `CC1(Cc2ccccc2)C(=O)N(c2cc(Cl)cc(Cl)c2)C(=O)N1C1CC1` (centres unmarked) [Example 150], the affinity under setting [1], expressed as Kd, was 510 nM. On the same count and under the same terms, then `COc1ccc(CC2(C)C(=O)N(c3cc(Cl)cc(Cl)c3)C(=O)N2C)cc1` (centres unmarked) [Example 166], with 280 nM; and `CCN1C(=O)N(c2cc(Cl)cc(Cl)c2)C(=O)C1(C)Cc1ccc(Br)cc1` (centres unmarked) [Example 105], with 120 nM. Under setting [1], `C[C@]1(Cc2c[nH]c3ccccc23)NC(=O)N(c2cc(Cl)cc(Cl)c2)C1=O` [Example 42] returned a Kd of 600 nM. Compared with the last molecule, the Kd is about 5-fold higher. As to `C[C@@]1(Cc2ccc(Br)cc2)C(=O)N(c2cc(Cl)cc(Cl)c2)C(=O)N1CCCCCP(=O)(O)O` [Example 222], the Kd came out at 60 nM. Still for that read-out and setting: the figure for `C[C@]1(Cc2ccc(C(=O)c3ccccc3)cc2)NC(=O)N(c2cc(Cl)cc(Cl)c2)C1=O` [Example 216] is 500 nM.

As for `CC1(Cc2cccc(OC(F)(F)F)c2)NC(=O)N(c2cc(Cl)cc(Cl)c2)C1=O` (centres unmarked) [Example 68], under setting [1], the affinity, expressed as Kd, was 2580 nM. In other words, the single-digit micromolar range. On to `CC(C)(C)C(=O)c1ccc(CC2(C)NC(=O)N(c3cc(Cl)cc(Cl)c3)C2=O)cc1` (centres unmarked) [Example 47], for which the affinity under setting [1], expressed as Kd, was 4310 nM. Still for that read-out and setting: then `O=C1NC(Cc2ccsc2)C(=O)N1c1cc(Cl)cc(Cl)c1` (centres unmarked) [Example 26], with 2750 nM. On the same count and under the same terms, then `CN1C(=O)N(c2cc(Cl)cc(Cl)c2)C(=O)[C@@]1(C)Cc1ccc(-c2ccc(C(=O)O)cc2)cc1` [Example 186], with 1110 nM; and `CN1C(=O)N(c2cc(Cl)cc(Cl)c2)C(=O)C1(C)Cc1ccc(C(=O)c2ccccc2)cc1` (centres unmarked) [Example 168], with 410 nM. `CC1(Cc2ccc(-c3ccc4ccccc4c3)cc2)NC(=O)N(c2cc(Cl)cc(Cl)c2)C1=O` (centres unmarked) [Example 211]: the dissociation constant Kd was about 2000 nM. `COc1ccc(CN2C(=O)N(c3cc(Cl)cc(Cl)c3)C(=O)[C@@]2(C)Cc2ccc(Br)cc2)cc1` [Example 113]: under setting [1], the Kd was found to be 1910 nM.

With `COC(=O)c1ccc(CC2(C)C(=O)N(c3cc(Cl)cc(Cl)c3)C(=O)N2C)cc1` (centres unmarked) [Example 174], binding under setting [1] was put at a Kd of 710 nM. Against the preceding molecule, the Kd is about 2.7-fold lower. Molecule `CCCN1C(=O)N(c2cc(Cl)cc(Cl)c2)C(=O)C1(C)Cc1ccc(Br)cc1` (centres unmarked) [Example 106] yielded a dissociation constant Kd under setting [1] of 140 nM. Turning to `C[C@@]1(Cc2ccc(Br)cc2)C(=O)N(c2cc(Cl)cc(Cl)c2)C(=O)N1Cc1ccc(O)cc1` [Example 246], the affinity, expressed as Kd, was 250 nM. Molecule `CN1C(=O)N(c2cc(Cl)cc(Cl)c2)C(=O)C1(C)Cc1ccc(S(C)(=O)=O)cc1` (centres unmarked) [Example 176] yielded a dissociation constant (Kd) under setting [1] of 3960 nM. The same measure, in the same setting: then `COc1cccc(CC2(C)C(=O)N(c3cc(Cl)cc(Cl)c3)C(=O)N2C)c1` (centres unmarked) [Example 165], with 1070 nM; and `CC1(Cc2ccc(-c3cccc(Cl)c3)cc2)NC(=O)N(c2cc(Cl)cc(Cl)c2)C1=O` (centres unmarked) [Example 202], with 230 nM. `C[C@@]1(Cc2ccc(Br)cc2)C(=O)N(c2cc(Cl)cc(Cl)c2)C(=O)N1C(=O)[C@H](N)CO` [Example 232]: the Kd stood at 1240 nM. Consider `CN(C)CCN1C(=O)N(c2cc(Cl)cc(Cl)c2)C(=O)[C@@]1(C)Cc1ccc(Br)cc1` [Example 108], for which, under setting [1], the Kd was 410 nM. For `C[C@@]1(Cc2ccc(Br)cc2)CC(=O)N(c2cc(Cl)cc(Cl)c2)C1=O` [Example 278], the Kd came to 1090 nM. Regarding `CC1(Cc2cccc(C(F)(F)F)c2)NC(=O)N(c2cc(Cl)cc(Cl)c2)C1=O` (centres unmarked) [Example 53], the Kd under setting [1] came to 1470 nM. `C[C@@H]1C(=O)N(c2cc(Cl)cc(Cl)c2)C(=O)[C@]1(C)Cc1ccc(Br)cc1` [Example 73]: the dissociation constant (Kd) under setting [1] was 340 nM. Compared with the last molecule, the Kd is about 4.3-fold lower.

With `C[C@@]1(Cc2ccc(Br)cc2)C(=O)N(c2cc(Cl)cc(Cl)c2)C(=O)N1Cc1ccccc1C#N` [Example 114], the affinity under setting [1], expressed as Kd, was 260 nM. On the same count and under the same terms, the figure for `CC1(Cc2ccccc2Br)NC(=O)N(c2cc(Cl)cc(Cl)c2)C1=O` (centres unmarked) [Example 48] is 1750 nM; for `Cc1ccccc1CC1(C)C(=O)N(c2cc(Cl)cc(Cl)c2)C(=O)N1C` (centres unmarked) [Example 148] it is 500 nM; for `CN1C(=O)N(c2cccc(Cl)c2)C(=O)[C@@]1(C)Cc1ccc(Br)cc1` [Example 101] it is 680 nM. Still for that read-out and setting: the figure for `CN1C(=O)N(c2cc(Cl)cc(Cl)c2)C(=O)C1Cc1ccc(C(=O)c2ccccc2)cc1` (centres unmarked) [Example 95] is 260 nM. Turning to `CC1(Cc2ccc(-c3cc4ccccc4o3)cc2)NC(=O)N(c2cc(Cl)cc(Cl)c2)C1=O` (centres unmarked) [Example 209], the affinity, expressed as Kd, was 940 nM. For `CN1C(=O)N(c2cc(Cl)cc(Cl)c2)C(=O)C1(C)Cc1ccc2ccccc2n1` (centres unmarked) [Example 161], under setting [1], the Kd turned out to be 4560 nM. Still for that read-out and setting: then `CC1(Cc2ccc(-c3cccs3)cc2)NC(=O)N(c2cc(Cl)cc(Cl)c2)C1=O` (centres unmarked) [Example 195], with 300 nM. Molecule `C[C@@]1(Cc2ccc(Br)cc2)C(=O)N(c2cc(Cl)cc(Cl)c2)C(=O)N1C1CCN(CP(=O)(O)O)CC1` [Example 236] displayed a Kd of 330 nM. `CN1C(=O)N(c2cc(Cl)cc(Cl)c2)C(=O)C1(C)Cc1cccc(Cl)c1` (centres unmarked) [Example 155] had a Kd under setting [1] of 510 nM. As for `C[C@@]1(Cc2ccc(Br)cc2)C(=O)N(c2cc(Cl)cc(Cl)c2)C(=O)N1CCCCCCP(=O)(O)O` [Example 220], the Kd was 270 nM. Turning to `Cc1ccc(CC2(C)C(=O)N(c3cc(Cl)cc(Cl)c3)C(=O)N2C)cc1` (centres unmarked) [Example 144], binding under setting [1] was put at a Kd of 350 nM. In other words, the sub-micromolar range. On to `Cc1ccccc1CC1(C)C(=O)N(c2cc(Cl)cc(Cl)c2)C(=O)N1C` (centres unmarked) [Example 142], for which the Kd under setting [1] came out at 430 nM.

Consider `CC1(Cc2ccc(-c3cccc(F)c3)cc2)NC(=O)N(c2cc(Cl)cc(Cl)c2)C1=O` (centres unmarked) [Example 212], for which binding was characterised by a dissociation constant (Kd) of 70 nM. In turn, `C[C@@]1(Cc2ccc(Br)cc2)C(=O)N(c2cc(Cl)cc(Cl)c2)C(=O)N1CCCCCCCl` [Example 120] displayed a Kd under setting [1] of 480 nM. Take `C[C@@]1(Cc2ccc(Br)cc2)C(=O)N(c2cc(Cl)cc(Cl)c2)C(=O)N1COC(=O)C(CO)CO` [Example 238]: the affinity, expressed as Kd, was 80 nM. With `CC1(Cc2ccccc2)CC(=O)N(c2cc(Cl)cc(Cl)c2)C1=O` (centres unmarked) [Example 75], the Kd under setting [1] turned out to be 290 nM. In other words, the sub-micromolar range.

Under setting [1], `CC1(Cc2ccc(Br)cc2)NC(=S)N(c2cc(Cl)cc(Cl)c2)C1=S` (centres unmarked) [Example 78] returned a dissociation constant (Kd) of 340 nM. Molecule `CC1(Cc2csc3ccccc23)NC(=O)N(c2cc(Cl)cc(Cl)c2)C1=O` (centres unmarked) [Example 27] displayed a Kd under setting [1] of about 52000 nM. In turn, `CC(C)(C)OC(=O)CN1C(=O)N(c2cc(Cl)cc(Cl)c2)C(=O)C1(C)Cc1ccccc1` (centres unmarked) [Example 91] came in with a Kd under setting [1] of 430 nM. `CN1C(=O)N(c2cc(Cl)cc(Cl)c2)C(=O)C1(C)Cc1ccccc1Br` (centres unmarked) [Example 145] yielded a Kd under setting [1] of 1050 nM. For the molecule `O=C1NC(Cc2cccnc2)C(=O)N1c1cc(Cl)cc(Cl)c1` (centres unmarked) [Example 181], the inhibition at 160 µg/mL (at 160 μg/mL, read-out: LFA-1/ICAM Binding Assay percent inhibition) turned out to be 47%. Under setting [1], `CC1(Cc2ccccc2)C(=O)N(c2cc(Cl)cc(Cl)c2)C(=O)N1C1CCCCC1` (centres unmarked) [Example 33] had a Kd of 940 nM.

The molecule `CC(C)N1C(=O)N(c2cc(Cl)cc(Cl)c2)C(=O)C1(C)Cc1ccc(Br)cc1` (centres unmarked) [Example 139] had a Kd under setting [1] of 790 nM. This Kd and that of the molecule before are within 1.5-fold of each other. `CC1(Cc2ccc(-c3ccc(Cl)cc3)cc2)NC(=O)N(c2cc(Cl)cc(Cl)c2)C1=O` (centres unmarked) [Example 205]: the Kd under setting [1] was 560 nM. The Kd values of the last two molecules are within 1.5-fold of each other. As to `CCC1(Cc2ccccc2)NC(=O)N(c2cc(Cl)cc(Cl)c2)C1=O` (centres unmarked) [Example 30], under setting [1], the Kd is 1480 nM. Same read-out and setting: the figure for `CN1C(=O)N(c2cc(Cl)cc(Cl)c2)C(=O)C1(C)Cc1ccccc1Cl` (centres unmarked) [Example 156] is 690 nM; for `CC1(Cc2cccc(Oc3ccccc3)c2)NC(=O)N(c2cc(Cl)cc(Cl)c2)C1=O` (centres unmarked) [Example 56] it is 480 nM.

For the molecule `CN1C(=O)N(c2cc(Cl)cc(Cl)c2)C(=O)C1(CN)Cc1ccc(Br)cc1` (centres unmarked) [Example 230], the Kd stood at 2200 nM. On to `C[C@]1(Cc2cccc(-c3ccccc3)c2)NC(=O)N(c2cc(Cl)cc(Cl)c2)C1=O` [Example 185], for which binding under setting [1] was put at a Kd of 250 nM. Still for that read-out and setting: the figure for `O=C(c1ccccc1)c1ccc(CC2NC(=O)N(c3cc(Cl)cc(Cl)c3)C2=O)cc1` (centres unmarked) [Example 1] is 1640 nM.

Values taken from patent publication USRE38132E1, “Phenylpyrrolidines, phenylimidazolidines,3-phenyl-1,3-oxizolidines and 3-phenyl-1,3-thiazolidines and their use in the treatment of inflammatory disease” (Boehringer Ingelheim Pharmaceuticals, Inc., priority 1997, dated 2003).
